# Data as given in patent US20080317723A1, “LYMPHATIC ENDOTHELIAL CELLS MATERIALS AND METHODS” (VEGENICS LIMITED, priority 2001, published 2008).
# “Also recorded” adds a separate entry of the source.
# How the values were obtained:
# p42/p44 MAPK = p42/p44 MAPK Thr202/Tyr204 phosphorylation in HMVE cells, Western blot; assay type: cell-based, human; conditions: minimum growth factor concentrations giving maximal activation
# Description: (§1) Western blot analysis. Endothelial cells were cultured on 35 mm dishes to near confluence, starved for 24 h in serum free medium and stimulated as indicated. Wortmannin ([…]), LY294002 ([…]), PD98059 (10-25 μM) or GF109203X (2.5-5 μM) were added 1-3 h before stimulation, where indicated. DMSO, into which the inhibitors were dissolved, was used as a control. After the stimulation, the cells were lysed in lysis buffer (50 mM HEPES, pH 7.5, 150 mM NaCl, 10 mM EDTA, 100 mM NaF, 1% TritonX-100 supplemented with 2 mM Na3VO4, 0.5 mM PMSF, 100 U/ml approtinin and 10 μg/ml leupeptin). Clarified lysates were separated by SDS-PAGE, transferred to nitrocellulose and immunoblotted using the phosphospecific antibodies for Akt-Ser473, Akt-Thr308, p42/44 MAPK-Thr202/Tyr204 or CREB-Ser133. The bound antibodies were detected using horseradish peroxidase conjugated secondary antibodies and enhanced chemiluminescence detection system. The blots were stripped and reprobed with antibodies against Akt, MAPK or CREB for quantification by reading the optical densities of the signals with Multi-Analyst 2.0.1 program (Bio-Rad).
# (§2) The p42/p44 MAPK activation was detected by Western blotting using phospho-Thr202/Tyr204-MAPK specific antibodies and CREB phosphorylation using phospho-Ser133 specific antibodies. The growth factor concentrations used were: VEGF 10 ng/ml, VEGF-C 100 ng/ml and VEGF-C156S 500 ng/ml. […] Effects of inhibition of protein kinase C by GF109203X, MEK1 by PD98059 and PI-3 kinase by LY294002 on p42/p44 MAPK Thr202/Tyr204 phosphorylation, CREB Ser133 phosphorylation and Akt Ser473 phosphorylation in HMVE cells. The growth factor concentrations used were: VEGF 1 ng/ml, VEGF-C 10 ng/ml and VEGF-C156S 500 ng/ml
# CREB = CREB Ser133 phosphorylation in HMVE cells, Western blot; assay type: cell-based, human; conditions: HMVE cells
# Description: as §1, §2
# mVEGFR-3 = mVEGFR-3 (Mus musculus, UniProt P35917); conditions: reference: Baldwin et al. 2001; cited from earlier work
# Sequence of mVEGFR-3 (P35917 25-1363): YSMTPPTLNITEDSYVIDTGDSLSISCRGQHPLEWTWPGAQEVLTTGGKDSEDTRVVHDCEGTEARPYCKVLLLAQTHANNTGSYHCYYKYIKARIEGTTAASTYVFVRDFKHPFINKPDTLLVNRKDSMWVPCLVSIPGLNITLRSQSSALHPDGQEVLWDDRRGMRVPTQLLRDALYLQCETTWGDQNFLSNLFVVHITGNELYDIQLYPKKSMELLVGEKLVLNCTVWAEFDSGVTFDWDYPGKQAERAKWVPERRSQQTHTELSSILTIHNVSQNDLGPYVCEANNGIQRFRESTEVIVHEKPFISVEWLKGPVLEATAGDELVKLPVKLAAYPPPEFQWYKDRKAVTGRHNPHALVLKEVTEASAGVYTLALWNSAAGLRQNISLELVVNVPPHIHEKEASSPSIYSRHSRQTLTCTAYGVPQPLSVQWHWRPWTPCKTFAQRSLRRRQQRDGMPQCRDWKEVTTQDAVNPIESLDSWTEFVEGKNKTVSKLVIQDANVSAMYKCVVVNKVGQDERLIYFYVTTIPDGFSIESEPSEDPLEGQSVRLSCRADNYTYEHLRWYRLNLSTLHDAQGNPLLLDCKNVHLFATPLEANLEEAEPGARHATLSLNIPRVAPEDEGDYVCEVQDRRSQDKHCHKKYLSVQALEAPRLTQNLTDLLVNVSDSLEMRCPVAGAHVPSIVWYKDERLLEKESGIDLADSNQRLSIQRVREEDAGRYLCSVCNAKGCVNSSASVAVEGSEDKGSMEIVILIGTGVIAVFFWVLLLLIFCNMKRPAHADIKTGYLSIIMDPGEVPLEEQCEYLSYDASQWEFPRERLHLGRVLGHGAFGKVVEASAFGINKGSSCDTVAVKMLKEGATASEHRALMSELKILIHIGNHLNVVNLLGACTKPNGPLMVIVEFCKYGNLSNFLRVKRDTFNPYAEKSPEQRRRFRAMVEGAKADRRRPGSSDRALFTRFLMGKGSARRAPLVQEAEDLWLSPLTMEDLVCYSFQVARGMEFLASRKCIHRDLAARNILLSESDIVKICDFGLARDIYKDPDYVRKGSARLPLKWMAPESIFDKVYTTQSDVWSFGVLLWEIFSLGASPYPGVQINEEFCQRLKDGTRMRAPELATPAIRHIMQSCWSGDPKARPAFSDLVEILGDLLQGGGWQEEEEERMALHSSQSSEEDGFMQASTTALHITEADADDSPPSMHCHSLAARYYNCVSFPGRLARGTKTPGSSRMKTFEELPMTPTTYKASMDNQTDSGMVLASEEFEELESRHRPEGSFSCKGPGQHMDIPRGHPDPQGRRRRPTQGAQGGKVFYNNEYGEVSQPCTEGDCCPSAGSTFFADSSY
# mVEGFR-2 = mVEGFR-2 (Mus musculus, UniProt P35918); conditions: mVEGFR-2, monovalent; reference: Baldwin et al. 2001; cited from earlier work
# Sequence of mVEGFR-2 (P35918 20-1345): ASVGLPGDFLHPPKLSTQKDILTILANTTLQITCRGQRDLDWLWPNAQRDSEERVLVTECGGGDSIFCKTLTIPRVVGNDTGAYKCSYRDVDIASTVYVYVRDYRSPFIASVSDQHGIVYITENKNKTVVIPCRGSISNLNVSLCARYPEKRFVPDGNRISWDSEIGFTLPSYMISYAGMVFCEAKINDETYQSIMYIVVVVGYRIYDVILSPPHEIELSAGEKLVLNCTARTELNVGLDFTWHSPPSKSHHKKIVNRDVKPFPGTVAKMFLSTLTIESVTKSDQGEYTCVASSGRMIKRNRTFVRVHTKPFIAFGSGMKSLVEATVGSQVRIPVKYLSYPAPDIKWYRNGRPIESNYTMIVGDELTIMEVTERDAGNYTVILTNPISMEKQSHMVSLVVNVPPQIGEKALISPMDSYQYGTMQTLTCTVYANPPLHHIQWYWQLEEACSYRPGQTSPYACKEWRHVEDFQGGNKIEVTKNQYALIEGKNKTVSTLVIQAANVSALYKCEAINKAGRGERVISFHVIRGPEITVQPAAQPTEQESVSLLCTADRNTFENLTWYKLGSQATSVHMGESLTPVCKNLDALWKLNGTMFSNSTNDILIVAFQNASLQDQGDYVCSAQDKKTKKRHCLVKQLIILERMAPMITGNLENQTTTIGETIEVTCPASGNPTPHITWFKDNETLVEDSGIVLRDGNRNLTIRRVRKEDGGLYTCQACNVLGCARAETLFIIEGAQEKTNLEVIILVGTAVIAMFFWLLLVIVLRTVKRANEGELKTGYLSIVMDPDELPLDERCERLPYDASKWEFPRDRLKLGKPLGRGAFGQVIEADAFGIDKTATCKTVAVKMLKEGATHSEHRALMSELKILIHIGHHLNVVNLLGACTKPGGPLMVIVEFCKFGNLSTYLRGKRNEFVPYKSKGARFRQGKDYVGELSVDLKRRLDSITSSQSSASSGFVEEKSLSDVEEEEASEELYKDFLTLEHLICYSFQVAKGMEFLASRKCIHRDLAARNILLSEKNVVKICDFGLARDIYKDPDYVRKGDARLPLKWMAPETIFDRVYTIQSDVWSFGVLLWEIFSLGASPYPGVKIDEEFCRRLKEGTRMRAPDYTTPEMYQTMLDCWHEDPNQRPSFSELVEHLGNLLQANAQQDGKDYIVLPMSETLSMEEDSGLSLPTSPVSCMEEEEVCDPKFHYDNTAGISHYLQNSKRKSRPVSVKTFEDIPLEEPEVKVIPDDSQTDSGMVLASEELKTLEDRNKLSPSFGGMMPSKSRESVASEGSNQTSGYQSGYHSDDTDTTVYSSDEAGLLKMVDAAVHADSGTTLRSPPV
Molecule,"effect on p42/44 MAPK phosphorylation induced by VEGF, VEGF-C or VEGF-C156S (p42/p44 MAPK)",effect of inhibitor on VEGF induced CREB phosphorylation (CREB),effect of inhibitor on VEGF-C induced CREB phosphorylation (CREB),Ka (mVEGFR-3) [M⁻¹ s⁻¹],KD (mVEGFR-2),Ka (mVEGFR-2),Kd (mVEGFR-2)
"CN(C)CCCn1cc(C2=C(c3c[nH]c4ccccc34)C(=O)NC2=O)c2ccccc21 [GF109203X, Bisindolylmaleimide I]",completely blocked,completely blocked,completely blocked,,,,
N#CC(=C(/N)Sc1ccccc1N)/C(C#N)=C(\N)Sc1ccccc1N [U0126],,but not VEGF induced CREB phosphorylation,inhibited VEGFC,,,,
COc1cccc(-c2cc(=O)c3ccccc3o2)c1N [PD98059],,but not VEGF induced CREB phosphorylation; also recorded: did not inhibit VEGF induced CREB phosphorylation,inhibited VEGFC; also recorded: decreased phosphorylation of CREB upon VEGFC stimulation,,,,
"mVEGF-D: mature form of mouse VEGF-D, data from Baldwin et al. 2001 (protein, UniProt P97946 94-210, looked up) Vascular endothelial growth …: FAATFYDTETLKVIDEEWQRTQCSPRETCVEVASELGKTTNTFFKPPCVNVFRCGGCCNEEGVMCMNTSTSYISKQLFEISVPLTSVPELVPVKIANHTGCKCLPTGPRHPYSIIRR",,,,8000,no binding,no binding,no binding
